From patent publication US5091524A, “Glycosidase inhibitor salbostatin, process for its preparation, and its use” (Hoechst Aktiengesellschaft, priority 1988, dated 1992)

Target: T1, trehalase (Sigma No. T 8778) (Sus scrofa, UniProt I3LIR5)
T1 construct: purchased Sigma T 8778
T1 sequence (I3LIR5 24-583): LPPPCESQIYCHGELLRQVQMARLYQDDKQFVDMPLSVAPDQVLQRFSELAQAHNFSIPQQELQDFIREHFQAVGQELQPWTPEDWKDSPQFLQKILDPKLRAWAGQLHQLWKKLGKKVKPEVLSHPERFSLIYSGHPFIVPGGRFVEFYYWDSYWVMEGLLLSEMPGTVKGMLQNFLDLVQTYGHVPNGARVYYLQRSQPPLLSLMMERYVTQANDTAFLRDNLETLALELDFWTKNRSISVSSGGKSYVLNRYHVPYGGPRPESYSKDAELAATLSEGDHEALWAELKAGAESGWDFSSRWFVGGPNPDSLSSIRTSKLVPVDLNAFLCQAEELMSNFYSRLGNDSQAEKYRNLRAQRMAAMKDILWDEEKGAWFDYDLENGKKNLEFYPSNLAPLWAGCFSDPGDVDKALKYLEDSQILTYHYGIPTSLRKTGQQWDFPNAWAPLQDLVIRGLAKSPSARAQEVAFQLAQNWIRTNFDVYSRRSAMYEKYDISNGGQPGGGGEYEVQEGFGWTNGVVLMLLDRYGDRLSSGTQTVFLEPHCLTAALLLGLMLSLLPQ
Assay: Trehalase assay (colorimetric determination of D-glucose liberated from trehalose)
Format: biochemical
Procedure: The trehalase assay is based on the colorimetric determination of D-glucose, which is liberated from trehalose by the action of trehalase.
Before the assay was started, trehalase (Sigma No. T 8778) was diluted with 20 mM phosphate buffer pH 6.5 in a ratio of 1 1000. Trehalose was dissolved in a concentration of 0.lM in 0.lM 2-(n-morpholino)ethanesulfonic acid.
At the beginning of the assay, 100 μl each of H2 O, trehalose and trehalase were combined and the mixture was incubated at 37° C. for 30 minutes. The reaction was stopped by heating the batch to 100° C. The control batch was stopped immediately (0 minutes) by boiling. Where appropriate, salbostatin was added to the reaction batches in various concentrations in place of water.
The glucose which was liberated from the trehalose was determined colorimetrically. To this end, the glucose was reacted by glucose oxidase and the H2 O2 which formed was used for oxidizing o-dianisidine.The oxidized odianisidine was determined using a photometer. All the abovementioned reagents for glucose determination came from the glucose kit manufactured by Sigma (Sigma Chemie GmbH, Deisenhofen, Germany; No. 510-DA), and the assay was carried out in accordance with the enclosed protocol.

- Ki (competitive with regard to trehalose, read-out: inhibitor constant Ki): 0.18 µM
- IC50 (substrate trehalose, 37° C., 30 minutes, read-out: salbostatin concentration showing an enzyme inhibition of 50%): 0.01 to 0.1 µM
- type of inhibition (enzyme kinetics) (with regard to trehalose): competitive trehalase inhibitor
SMILES: OCC1=C[C@H](N[C@H]2CO[C@H](CO)[C@@H](O)[C@@H]2O)[C@H](O)[C@@H](O)[C@@H]1O [salbostatin]
